Source: PubChem BioAssay AID2060483 (Molecular Pharmacology Branch, DTP, NCI, 2025)

Test system: K24384-001-R-PDC complex spheroids, viability
Test: Anticancer human tumor K24384-001-R-PDC patient-derived pancreatic adenocarcinoma cell line growth inhibition [GQUAD]
Settings: for IC50: curve of first compound; for viability, T/C: stronger effect = lower value
How it was run: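 Viability of tumor cells grown as complex spheroids with endothelial and stromal cells, exposed to drug combinations. Top concentration at or near clinical Cmax (else 10 microM), diluted in half-log increments.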

[1] = second compound 0.0316 µM, first compound 0.0316 µM
[2] = second compound 0.0316 µM, first compound 0.1 µM
[3] = second compound 0.0316 µM, first compound 0.316 µM
[4] = second compound 0.0316 µM, first compound 1 µM
[5] = second compound 0.0316 µM, first compound 3.16 µM
[6] = second compound 0.0316 µM, first compound 10 µM
[7] = second compound 0.1 µM, first compound 0.0316 µM
[8] = second compound 0.1 µM, first compound 0.1 µM
[9] = second compound 0.1 µM, first compound 0.316 µM
[10] = second compound 0.1 µM, first compound 1 µM
[11] = second compound 0.1 µM, first compound 3.16 µM
[12] = second compound 0.1 µM, first compound 10 µM
[13] = second compound 0.316 µM, first compound 0.0316 µM
[14] = second compound 0.316 µM, first compound 0.1 µM
[15] = second compound 0.316 µM, first compound 0.316 µM
[16] = second compound 0.316 µM, first compound 1 µM
[17] = second compound 0.316 µM, first compound 3.16 µM
[18] = second compound 0.316 µM, first compound 10 µM
[19] = second compound 1 µM, first compound 0.0316 µM
[20] = second compound 1 µM, first compound 0.1 µM
[21] = second compound 1 µM, first compound 0.316 µM
[22] = second compound 1 µM, first compound 1 µM
[23] = second compound 1 µM, first compound 3.16 µM
[24] = second compound 1 µM, first compound 10 µM
[25] = second compound 3.16 µM, first compound 0.0316 µM
[26] = second compound 3.16 µM, first compound 0.1 µM
[27] = second compound 3.16 µM, first compound 0.316 µM
[28] = second compound 3.16 µM, first compound 1 µM
[29] = second compound 3.16 µM, first compound 3.16 µM
[30] = second compound 3.16 µM, first compound 10 µM
[31] = second compound 10 µM, first compound 0.0316 µM
[32] = second compound 10 µM, first compound 0.1 µM
[33] = second compound 10 µM, first compound 0.316 µM
[34] = second compound 10 µM, first compound 1 µM
[35] = second compound 10 µM, first compound 3.16 µM
[36] = second compound 10 µM, first compound 10 µM
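Also: spheroids exposed to compounds for seven days.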

`O=c1[nH]cc(F)c(=O)[nH]1` + Cc1[nH]c2ccc(F)cc2c1-c1nc2c3cccnc3c3ncccc3c2[nH]1 was tested, and the IC50 (second compound 0.0316 µM) was 4360 nM, the IC50 (second compound 0.1 µM) was > 10000 nM and the IC50 (second compound 0.316 µM) was 1180 nM. The IC50 (second compound 1 µM) was 3090 nM, the IC50 (second compound 3.16 µM) was 479 nM and the IC50 (second compound 10 µM) was 581 nM. It also gave a viability, T/C [1] of 98.4%, a viability, T/C [2] of 77.9% and a viability, T/C [3] of 76.1%. For the same compound, the viability, T/C [4] was 55.5%, the viability, T/C [5] was 54.9% and the viability, T/C [6] was 44.4%. The viability, T/C [7] was 88.4%, the viability, T/C [8] was 92.7% and the viability, T/C [9] was 86.8%. The viability, T/C [10] was 55.6%, the viability, T/C [11] was 62.4% and the viability, T/C [12] was 39.6%. It also gave a viability, T/C [13] of 97%, a viability, T/C [14] of 90.9% and a viability, T/C [15] of 66.3%. The viability, T/C [16] was 53.3%, the viability, T/C [17] was 43.2% and the viability, T/C [18] was 39.9%. The viability, T/C [19] was 88.2%, the viability, T/C [20] was 93.1% and the viability, T/C [21] was 66.7%. For the same compound, the viability, T/C [22] was 59.9%, the viability, T/C [23] was 54.8% and the viability, T/C [24] was 36.3%. The viability, T/C [25] was 69.4%, the viability, T/C [26] was 56.5% and the viability, T/C [27] was 51.9%. It also gave a viability, T/C [28] of 53%, a viability, T/C [29] of 35.5% and a viability, T/C [30] of 43%. It also gave a viability, T/C [31] of 65.3%, a viability, T/C [32] of 53.6% and a viability, T/C [33] of 62.3%. The viability, T/C [34] was 40.7%, the viability, T/C [35] was 33.8% and the viability, T/C [36] was 31.7%.

With `O=C(NO)c1cnc(N2CCN(S(=O)(=O)c3ccc4ccccc4c3)CC2)nc1` + CN(C)c1ccc(Nc2c3ccc(NC(=O)CCN4CCCC4)cc3nc3cc(NC(=O)CCN4CCCC4)ccc23)cc1 the IC50 (second compound 0.0316 µM) was 603 nM, the IC50 (second compound 0.1 µM) was 511 nM and the IC50 (second compound 0.316 µM) was 553 nM. For the same compound, the IC50 (second compound 1 µM) was 554 nM, the IC50 (second compound 3.16 µM) was 475 nM and the IC50 (second compound 10 µM) was 476 nM. The viability, T/C [1] was 111%, the viability, T/C [2] was 91.6% and the viability, T/C [3] was 83.1%. It also gave a viability, T/C [4] of 25.2%, a viability, T/C [5] of 0.22% and a viability, T/C [6] of 0.18%. For the same compound, the viability, T/C [7] was 111%, the viability, T/C [8] was 97.7% and the viability, T/C [9] was 70.1%. The viability, T/C [10] was 23.5%, the viability, T/C [11] was 0.13% and the viability, T/C [12] was 0.14%. It also gave a viability, T/C [13] of 108%, a viability, T/C [14] of 126% and a viability, T/C [15] of 74.3%. For the same compound, the viability, T/C [16] was 23.4%, the viability, T/C [17] was 0.14% and the viability, T/C [18] was 0.18%. For the same compound, the viability, T/C [19] was 107%, the viability, T/C [20] was 117% and the viability, T/C [21] was 73.6%. It also gave a viability, T/C [22] of 24.3%, a viability, T/C [23] of 0.16% and a viability, T/C [24] of 0.16%. For the same compound, the viability, T/C [25] was 105%, the viability, T/C [26] was 103% and the viability, T/C [27] was 65.3%. The viability, T/C [28] was 20.6%, the viability, T/C [29] was 0.14% and the viability, T/C [30] was 0.16%. It also gave a viability, T/C [31] of 105%, a viability, T/C [32] of 92.3% and a viability, T/C [33] of 65.1%. It also gave a viability, T/C [34] of 24.7%, a viability, T/C [35] of 0.22% and a viability, T/C [36] of 0.22%.

With `CC1COCCN1c1cc(-c2ccnn2C)c2ccnc(-c3ccn[nH]3)c2n1` (stereo not drawn) + Cc1cnc(CNC(=O)c2c(=O)c3ccc(N4CCCN(C)CC4)nc3n3c2sc2ccccc23)cn1 the IC50 (second compound 0.0316 µM) was 41.5 nM, the IC50 (second compound 0.1 µM) was < 31.6 nM and the IC50 (second compound 0.316 µM) was < 31.6 nM. The IC50 (second compound 1 µM) was < 31.6 nM, the IC50 (second compound 3.16 µM) was < 31.6 nM and the IC50 (second compound 10 µM) was < 31.6 nM. The viability, T/C [1] was 53.5%, the viability, T/C [2] was 37.8% and the viability, T/C [3] was 40%. It also gave a viability, T/C [4] of 32%, a viability, T/C [5] of 34.6% and a viability, T/C [6] of 29.9%. It also gave a viability, T/C [7] of 48.8%, a viability, T/C [8] of 51.1% and a viability, T/C [9] of 34%. The viability, T/C [10] was 41.5%, the viability, T/C [11] was 32.2% and the viability, T/C [12] was 24.4%. It also gave a viability, T/C [13] of 44.8%, a viability, T/C [14] of 46.4% and a viability, T/C [15] of 39.4%. It also gave a viability, T/C [16] of 34.7%, a viability, T/C [17] of 32.8% and a viability, T/C [18] of 22.7%. The viability, T/C [19] was 42.9%, the viability, T/C [20] was 35.2% and the viability, T/C [21] was 34%. For the same compound, the viability, T/C [22] was 37.4%, the viability, T/C [23] was 25.3% and the viability, T/C [24] was 22.9%. It also gave a viability, T/C [25] of 32.8%, a viability, T/C [26] of 37.4% and a viability, T/C [27] of 31.4%. For the same compound, the viability, T/C [28] was 26.8%, the viability, T/C [29] was 21.7% and the viability, T/C [30] was 19.2%. It also gave a viability, T/C [31] of 25.4%, a viability, T/C [32] of 21.5% and a viability, T/C [33] of 20.9%. For the same compound, the viability, T/C [34] was 24.8%, the viability, T/C [35] was 10.3% and the viability, T/C [36] was 8.1%.

In the case of `COc1cc(C2c3cc4c(cc3C(OC3OC5COC(C)OC5C(O)C3O)C3COC(=O)C23)OCO4)cc(OC)c1O` (stereo not drawn) + CN(C)c1ccc(Nc2c3ccc(NC(=O)CCN4CCCC4)cc3nc3cc(NC(=O)CCN4CCCC4)ccc23)cc1, the IC50 (second compound 0.0316 µM) is reported as 958 nM, the IC50 (second compound 0.1 µM) is reported as 836 nM and the IC50 (second compound 0.316 µM) is reported as 762 nM. For the same compound, the IC50 (second compound 1 µM) was 807 nM, the IC50 (second compound 3.16 µM) was 665 nM and the IC50 (second compound 10 µM) was 710 nM. It also gave a viability, T/C [1] of 105%, a viability, T/C [2] of 87.1% and a viability, T/C [3] of 79.1%. For the same compound, the viability, T/C [4] was 46%, the viability, T/C [5] was 36.7% and the viability, T/C [6] was 37.5%. The viability, T/C [7] was 92%, the viability, T/C [8] was 99.7% and the viability, T/C [9] was 76.8%. It also gave a viability, T/C [10] of 46.3%, a viability, T/C [11] of 40.2% and a viability, T/C [12] of 41.4%. The viability, T/C [13] was 94.9%, the viability, T/C [14] was 91% and the viability, T/C [15] was 76.1%. It also gave a viability, T/C [16] of 40.9%, a viability, T/C [17] of 45.3% and a viability, T/C [18] of 39.5%. For the same compound, the viability, T/C [19] was 93.2%, the viability, T/C [20] was 95.3% and the viability, T/C [21] was 81.2%. It also gave a viability, T/C [22] of 42.9%, a viability, T/C [23] of 43% and a viability, T/C [24] of 38.5%. For the same compound, the viability, T/C [25] was 93.8%, the viability, T/C [26] was 104% and the viability, T/C [27] was 67.7%. It also gave a viability, T/C [28] of 46.8%, a viability, T/C [29] of 36.9% and a viability, T/C [30] of 37.2%. It also gave a viability, T/C [31] of 94.3%, a viability, T/C [32] of 105% and a viability, T/C [33] of 60.9%. For the same compound, the viability, T/C [34] was 59.1%, the viability, T/C [35] was 30.8% and the viability, T/C [36] was 46.3%.
